Here are results for 17 compounds from patent publication US12552825B2 (Zikani Therapeutics, Inc., priority 2019, dated 2026).

In brackets after ≈: the same amount, converted by molar mass.

What all share (assay type): cell-based
One assay deals with S. aureus MP-12. Briefly: microbe, parasite or virus in culture. The settings on record: Staphylococcus aureus, MP12, read-out: MIC S. aureus MP-12.
Another assay relates to A. baumannii MP-15. Briefly: MIC determination by CLSI broth dilution, A. baumannii MP-15. The settings on record: Acinetobacter baumannii, MP15, strain MP-15, read-out: MIC A. baumanii MP-15. (In general: In broth dilution the organism is exposed to a series of concentrations in liquid medium.)
Another assay concerns P. aeruginosa MP-3. Briefly: MIC determination by CLSI broth dilution, P. aeruginosa MP-3. The note with it: Pseudomonas aeruginosa, MP3, strain MP-3.
The test system of another assay is E. coli MP-4. Briefly: MIC determination by CLSI broth dilution, E. coli MP-4. The settings on record: Escherichia coli, MP4, CLSI broth dilution; strain MP-4.
The next assay deals with K. pneumoniae MP-546. Briefly: MIC determination by CLSI broth dilution, K. pneumoniae MP-546. The settings on record: Klebsiella pneumoniae, MP546, CLSI broth dilution; strain MP-546.

Consider `CO[C@]1(C)C[C@@H](C)CN(C)[C@@H](CCCNC(C)C)COC(=O)C(C)(C)C(=O)[C@H](C)[C@H]1O[C@@H]1O[C@H](C)C[C@H](N(C)C)[C@H]1O` [Compound 16, (3S,6R,8R,9R,10R)-9-(((2S,3R,4S,6R)-4-(dimethylamino)-3-hydroxy-6-methyltetrahydro-2H-pyran-2-yl)oxy)-3-(3-(isopropylamino)propyl)-8-methoxy-4,6,8,10,12,12-hexamethyl-1-oxa-4-azacyclotridecane-11,13-dione], for which the MIC in the assay with S. aureus MP-12 is 4 to 32 µg/mL (≈ 6.67 to 53.3 µM); with A. baumannii MP-15 it was over 32 µg/mL; with P. aeruginosa MP-3, over 32 µg/mL; against E. coli MP-4, under 4 µg/mL; with K. pneumoniae MP-546 it was 4 to 32 µg/mL (≈ 6.67 to 53.3 µM).
On to `CO[C@]1(C)C[C@@H](C)CN(C)[C@@H](CCCN(C)C)COC(=O)C(C)(C)C(=O)[C@H](C)[C@H]1O[C@@H]1O[C@H](C)C[C@H](N(C)C)[C@H]1O` [Compound 6, (3S,6R,8R,9R,10R)-9-(((2S,3R,4S,6R)-4-(dimethylamino)-3-hydroxy-6-methyltetrahydro-2H-pyran-2-yl)oxy)-3-(3-(dimethylamino)propyl)-8-methoxy-4,6,8,10,12,12-hexamethyl-1-oxa-4-azacyclotridecane-11,13-dione], for which the MIC in the assay with S. aureus MP-12 is over 32 µg/mL; with A. baumannii MP-15 it was over 32 µg/mL; in the assay on P. aeruginosa MP-3 it was over 32 µg/mL; with E. coli MP-4, under 4 µg/mL; in the assay on K. pneumoniae MP-546, under 4 µg/mL.
Take `CO[C@]1(C)C[C@@H](C)CN(C)[C@@H](CC2CCN(CC[C@@H](C)CCC=C(C)C)CC2)COC(=O)C(C)(C)C(=O)[C@H](C)[C@H]1O[C@@H]1O[C@H](C)C[C@H](N(C)C)[C@H]1O` [Compound 71]: the MIC with S. aureus MP-12 was over 32 µg/mL; with A. baumannii MP-15, over 32 µg/mL; in the assay on P. aeruginosa MP-3, over 32 µg/mL; against E. coli MP-4, 4 to 32 µg/mL (≈ 5.43 to 43.5 µM); in the assay with K. pneumoniae MP-546, over 32 µg/mL.
Turning to `CO[C@]1(C)C[C@@H](C)CN(C)[C@@H](CC2CCN(CC(C)(C)C)CC2)COC(=O)C(C)(C)C(=O)[C@H](C)[C@H]1O[C@@H]1O[C@H](C)C[C@H](N(C)C)[C@H]1O` [Compound 66], the MIC in the assay on S. aureus MP-12 was over 32 µg/mL; with A. baumannii MP-15, over 32 µg/mL; with P. aeruginosa MP-3, over 32 µg/mL; in the assay with E. coli MP-4, 4 to 32 µg/mL (≈ 5.99 to 47.9 µM); with K. pneumoniae MP-546 it was 4 to 32 µg/mL (≈ 5.99 to 47.9 µM).
With `CO[C@]1(C)C[C@@H](C)CN(C)[C@@H](CCCN(C)C(C)C)COC(=O)C(C)(C)C(=O)[C@H](C)[C@H]1O[C@@H]1O[C@H](C)C[C@H](N(C)C)[C@H]1O` [Compound 11, (3S,6R,8R,9R,10R)-9-(((2S,3R,4S,6R)-4-(dimethylamino)-3-hydroxy-6-methyltetrahydro-2H-pyran-2-yl)oxy)-3-(3-(isopropyl(methyl)amino)propyl)-8-methoxy-4,6,8,10,12,12-hexamethyl-1-oxa-4-azacyclotridecane-11,13-dione], the MIC in the assay with S. aureus MP-12 was 4 to 32 µg/mL (≈ 6.52 to 52.1 µM); with A. baumannii MP-15 it was over 32 µg/mL; against P. aeruginosa MP-3, over 32 µg/mL; against E. coli MP-4, under 4 µg/mL; against K. pneumoniae MP-546, under 4 µg/mL.
On to `CO[C@]1(C)C[C@@H](C)CN(C)[C@@H](CC2CCN(C(=O)C3CC3)CC2)COC(=O)C(C)(C)C(=O)[C@H](C)[C@H]1O[C@@H]1O[C@H](C)C[C@H](N(C)C)[C@H]1O` [Compound 44], for which the MIC was 4 to 32 µg/mL (≈ 6.01 to 48.1 µM) in the assay with S. aureus MP-12; over 32 µg/mL in the assay on A. baumannii MP-15; over 32 µg/mL in the assay on P. aeruginosa MP-3; over 32 µg/mL against E. coli MP-4; over 32 µg/mL against K. pneumoniae MP-546.
For `CO[C@]1(C)C[C@@H](C)CN[C@@H](CN(C)C)COC(=O)C(C)(C)C(=O)[C@H](C)[C@H]1O[C@@H]1O[C@H](C)C[C@H](N(C)C)[C@H]1O` [Compound 17, (3S,6R,8R,9R,10R)-9-(((2S,3R,4S,6R)-4-(dimethylamino)-3-hydroxy-6-methyltetrahydro-2H-pyran-2-yl)oxy)-3-((dimethylamino)methyl)-8-methoxy-6,8,10,12,12-pentamethyl-1-oxa-4-azacyclotridecane-11,13-dione], the MIC with S. aureus MP-12, in the assay on A. baumannii MP-15, against P. aeruginosa MP-3, against E. coli MP-4 and against K. pneumoniae MP-546 was over 32 µg/mL in each case.
On to `CO[C@]1(C)C[C@@H](C)CN(C)[C@H](CC2CCN(C(=O)C3CC3)CC2)COC(=O)C(C)(C)C(=O)[C@H](C)[C@H]1O[C@@H]1O[C@H](C)C[C@H](N(C)C)[C@H]1O` [Compound 45], for which the MIC was 4 to 32 µg/mL (≈ 6.01 to 48.1 µM) with S. aureus MP-12; over 32 µg/mL with A. baumannii MP-15; over 32 µg/mL in the assay with P. aeruginosa MP-3; 4 to 32 µg/mL (≈ 6.01 to 48.1 µM) against E. coli MP-4; 4 to 32 µg/mL (≈ 6.01 to 48.1 µM) against K. pneumoniae MP-546.
With `CCC(O)C(C)CN1CCC(C[C@@H]2COC(=O)C(C)(C)C(=O)[C@H](C)[C@@H](O[C@@H]3O[C@H](C)C[C@H](N(C)C)[C@H]3O)[C@](C)(OC)C[C@@H](C)CN2C)CC1` (stereo partly shown) [Compound 35], the MIC with S. aureus MP-12 was 4 to 32 µg/mL (≈ 5.73 to 45.8 µM); in the assay with A. baumannii MP-15, over 32 µg/mL; in the assay on P. aeruginosa MP-3, over 32 µg/mL; against E. coli MP-4, under 4 µg/mL; with K. pneumoniae MP-546, under 4 µg/mL.
As for `CO[C@]1(C)C[C@@H](C)CN(C)[C@@H](CN2CCN(S(C)(=O)=O)CC2)[C@H](C)OC(=O)C(C)(C)C(=O)[C@H](C)[C@H]1O[C@@H]1O[C@H](C)C[C@H](N(C)C)[C@H]1O` [Compound 80, (2S,3S,6R,8R,9R,10R)-9-(((2S,3R,4S,6R)-4-(dimethylamino)-3-hydroxy-6-methyltetrahydro-2H-pyran-2-yl)oxy)-8-methoxy-2,4,6,8,10,12,12-heptamethyl-3-((4-(methylsulfonyl)piperazin-1-yl)methyl)-1-oxa-4-azacyclotridecane-11,13-dione], the MIC with S. aureus MP-12 was 4 to 32 µg/mL (≈ 5.79 to 46.3 µM); in the assay with A. baumannii MP-15, over 32 µg/mL; in the assay with P. aeruginosa MP-3, over 32 µg/mL; in the assay on E. coli MP-4 it was over 32 µg/mL; in the assay with K. pneumoniae MP-546, over 32 µg/mL.
For the compound `CCCCCCCN1CCC(C[C@H]2COC(=O)C(C)(C)C(=O)[C@H](C)[C@@H](O[C@@H]3O[C@H](C)C[C@H](N(C)C)[C@H]3O)[C@](C)(OC)C[C@@H](C)CN2C)CC1` [Compound 70], the MIC with S. aureus MP-12 is over 32 µg/mL; in the assay on A. baumannii MP-15, over 32 µg/mL; with P. aeruginosa MP-3 it was over 32 µg/mL; with E. coli MP-4 it was under 4 µg/mL; in the assay with K. pneumoniae MP-546, 4 to 32 µg/mL (≈ 5.75 to 46 µM).
Turning to `CNC[C@H]1COC(=O)C(C)(C)C(=O)[C@H](C)[C@@H](O[C@@H]2O[C@H](C)C[C@H](N(C)C)[C@H]2O)[C@](C)(OC)C[C@@H](C)CN1` [Compound 15, (3S,6R,8R,9R,10R)-9-(((2S,3R,4S,6R)-4-(Dimethylamino)-3-hydroxy-6-methyltetrahydro-2H-pyran-2-yl)oxy)-8-methoxy-6,8,10,12,12-pentamethyl-3-((methylamino)methyl)-1-oxa-4-azacyclotridecane-11,13-dione], the MIC in the assay on S. aureus MP-12 was over 32 µg/mL; in the assay on A. baumannii MP-15 it was over 32 µg/mL; against P. aeruginosa MP-3, over 32 µg/mL; against E. coli MP-4 it was 4 to 32 µg/mL (≈ 7.55 to 60.4 µM); against K. pneumoniae MP-546, over 32 µg/mL.
With `CNC[C@H]1COC(=O)C(C)(C)C(=O)[C@H](C)[C@@H](O[C@@H]2O[C@H](C)C[C@H](N(C)C)[C@H]2O)[C@](C)(OC)C[C@@H](C)CN1C` [Compound 9, (3S,6R,8R,9R,10R)-9-(((2S,3R,4S,6R)-4-(Dimethylamino)-3-hydroxy-6-methyltetrahydro-2H-pyran-2-yl)oxy)-8-methoxy-4,6,8,10,12,12-hexamethyl-3-((methylamino)methyl)-1-oxa-4-azacyclotridecane-11,13-dione], the MIC was over 32 µg/mL in the assay on S. aureus MP-12; over 32 µg/mL in the assay with A. baumannii MP-15; over 32 µg/mL against P. aeruginosa MP-3; 4 to 32 µg/mL (≈ 7.36 to 58.9 µM) against E. coli MP-4; 4 to 32 µg/mL (≈ 7.36 to 58.9 µM) with K. pneumoniae MP-546.
Take `CO[C@]1(C)C[C@@H](C)CN(C)[C@@H](CN2CCN(S(=O)(=O)c3ccc(C)cc3)CC2)[C@H](C)OC(=O)C(C)(C)C(=O)[C@H](C)[C@H]1O[C@@H]1O[C@H](C)C[C@H](N(C)C)[C@H]1O` [Compound 139, (2S,3S,6R,8R,9R,10R)-9-(((2S,3R,4S,6R)-4-(dimethylamino)-3-hydroxy-6-methyltetrahydro-2H-pyran-2-yl)oxy)-8-methoxy-2,4,6,8,10,12,12-heptamethyl-3-((4-tosylpiperazin-1-yl)methyl)-1-oxa-4-azacyclotridecane-11,13-dione]: the MIC with S. aureus MP-12 is 4 to 32 µg/mL (≈ 5.21 to 41.7 µM); in the assay on A. baumannii MP-15 it was over 32 µg/mL; in the assay with P. aeruginosa MP-3 it was over 32 µg/mL; against E. coli MP-4, over 32 µg/mL; in the assay on K. pneumoniae MP-546 it was over 32 µg/mL.
For `CO[C@]1(C)C[C@@H](C)CN(C)[C@H](CC2CCN(C(C)C)CC2)C(C)(C)OC(=O)C(C)(C)C(=O)[C@H](C)[C@H]1O[C@@H]1O[C@H](C)C[C@H](N(C)C)[C@H]1O` [Compound 47], the MIC is 4 to 32 µg/mL (≈ 5.99 to 47.9 µM) in the assay on S. aureus MP-12; over 32 µg/mL in the assay with A. baumannii MP-15; over 32 µg/mL against P. aeruginosa MP-3; under 4 µg/mL in the assay with E. coli MP-4; 4 to 32 µg/mL (≈ 5.99 to 47.9 µM) in the assay with K. pneumoniae MP-546.
Take `CO[C@]1(C)C[C@@H](C)CN(C)[C@@H](CN2CCN(C(=O)C(C)(C)C)CC2)[C@H](C)OC(=O)C(C)(C)C(=O)[C@H](C)[C@H]1O[C@@H]1O[C@H](C)C[C@H](N(C)C)[C@H]1O` [Compound 114, (2S,3S,6R,8R,9R,10R)-9-(((2S,3R,4S,6R)-4-(dimethylamino)-3-hydroxy-6-methyltetrahydro-2H-pyran-2-yl)oxy)-8-methoxy-2,4,6,8,10,12,12-heptamethyl-3-((4-pivaloylpiperazin-1-yl)methyl)-1-oxa-4-azacyclotridecane-11,13-dione]: the MIC is 4 to 32 µg/mL (≈ 5.74 to 45.9 µM) in the assay with S. aureus MP-12; over 32 µg/mL in the assay with A. baumannii MP-15; over 32 µg/mL in the assay on P. aeruginosa MP-3; over 32 µg/mL against E. coli MP-4; over 32 µg/mL with K. pneumoniae MP-546.
As to `CO[C@]1(C)C[C@@H](C)CN(C)[C@@H](CC2CCN(C3CC3)CC2)COC(=O)C(C)(C)C(=O)[C@H](C)[C@H]1O[C@@H]1O[C@H](C)C[C@H](N(C)C)[C@H]1O` [Compound 69], the MIC with S. aureus MP-12 was 4 to 32 µg/mL (≈ 6.27 to 50.2 µM); in the assay with A. baumannii MP-15, over 32 µg/mL; against P. aeruginosa MP-3, over 32 µg/mL; with E. coli MP-4 it was 4 to 32 µg/mL (≈ 6.27 to 50.2 µM); against K. pneumoniae MP-546 it was 4 to 32 µg/mL (≈ 6.27 to 50.2 µM).
